# Data from US8486962B2, “Antifungal agents” (F2G Ltd., priority 2005, dated 2013).
# How the values were obtained:
# Format in all cases: cell-based
# Aspergillus flavus = assay: MIC, YAG medium, Aspergillus flavus; settings: YAG medium; for MIC: Aspergillus flavus, read-out: MIC A Flavus 01
# Description: (§1) Measurement of Minimum Inhibitory Concentrations (MICs)
# (§2) Between 1 and 5 mgs of compound were accurately weighed out into a sterile Eppendorf tube. The compound was dissolved in DMSO to give a solution containing 5 mg/ml. Tubes were stored at −20° C. until required.
# (§3) On the day of testing thawed solutions were vortex mixed to ensure homogeneity. 30 μl of solution was removed and added to 570 μl of sterile water in a separate sterile Eppendorf. The thoroughly mixed solution was used to prepare a series of doubling dilutions in water, in a deep well plate. Eleven replicate plates were prepared using a Minitrak by aspirating 20 μl from each well into eleven clear polystyrene 96 well plates.
# (§4) Spores of Aspergillus spp (Aspergillus fumigatus, Aspergillus terreus, Aspergillus niger and Aspergillus flavus) were harvested from cultures grown on Sabarauds agar for 5 days, and resuspended in PBS/Tween 80 to approx 1×10^7 cfu/ml Other filamentous fungi (Fusarium solani, Scedosporium spp., Trichophyton spp., Absidia corymbifera), were grown on Sabarauds agar for 2-10 days and spores/hyphae resuspended in PBS/Tween to give approx 1×10^7 cfU/ml. Candida species (Candida albicans, Candida glabrata, Candida krusei, Candida parapsilosis and Candida tropicalis) were grown on Sabarauds agar, cells were harvested from the agar using a sterile loop and resuspended in PBS/Tween 80 to approx 1×10^6 cfu/ml. Each organism suspension was diluted in RPMI medium, containing 2% glucose and 0.135M MOPS buffer (pH7.0) to 2×10^4 cfu/ml for Aspergillus spp and other filamentous fungi and 2×10^3 cfu/ml for yeast. 80 μl of an organism suspension was added to each well of the plate containing drug dilutions.
# (§5) This produced MIC plates with a drug range 50-0.05 mg/L and organism inocula of 1-2×10^4 cfu/ml for Aspergillus spp and other filamentous fungi and 1-2×10^3 cfu/ml for yeasts. All plates were incubated for 24-48 hrs at 35° C. Growth was assessed by monitoring the optical density at 485 nm for each well. The MIC of a compound is the lowest drug concentration that inhibits growth of an organism by >80% compared with a drug free control. MICs are recorded as mg/L. Other growth media can be used for susceptibility testing, and the activity of the described compounds can also be assessed in a medium comprising, 1% glucose, 1% ammonium chloride and 0.5% yeast extract (YAG medium). To perform MIC tests in this medium, dilutions of compounds are prepared in microtitre plates as described above. Fungal strains to be tested are grown and harvested in an identical manner to that described above, each organism suspension is then diluted in YAG medium to 2×10^4 cfu/ml for Aspergillus spp and other filamentous fungi and 2×10^3 cfu/ml for yeast. 80 μl of an organism suspension was added to each well of the plate containing drug dilutions. This produced MIC plates with a drug range 50-0.05 mg/L and organism inocula of 1-2×10^4 cfu/ml for Aspergillus spp and other filamentous fungi and 1-2×10^3 cfu/ml for yeasts. All plates were incubated for 24 hrs at 35° C. Growth was assessed by monitoring the optical density at 485 nm for each well. The MIC of a compound is the lowest drug concentration that inhibits growth of an organism by >70% compared with a drug free control. MICs are recorded as mg/L. In cases where the MIC of an organism is […]0.05 mg/L the MIC is repeated using a concentration range of 0.5-0.0005 mg/L. MIC tests in YAG medium have more clear-cut endpoints and have slightly lower MICS than those performed in RPMI medium.
# (§6) The following organisms were tested: Aspergillus fumigatus AF293 and Aspergillus fumigatus AF210, Aspergillus niger, Aspergillus terreus, Aspergillus favus, Candida albicans, Candida krusei, Candida tropicalis, Candida glabrata, Candida parapsilosis, Trichophyton rubrum, Trichophyton mentagrophytes, Scedosporium prolificans, Scedosporium apiospermum, Absidia corymbifera, Fusarium solani.
# [1] = test system: Aspergillus fumigatus AF293; assay: MIC, YAG medium, Aspergillus fumigatus AF293; settings: YAG medium; for MIC: Aspergillus fumigatus, AF293, read-out: MIC A Fum. 293
# Description: as §1, §2, §3, §4, §5, §6
# Aspergillus niger = assay: MIC, YAG medium, Aspergillus niger; settings: YAG medium; for MIC: Aspergillus niger, read-out: MIC A Niger 1
# Description: as §1, §2, §3, §4, §5, §6
# Aspergillus terreus = assay: MIC, YAG medium, Aspergillus terreus; settings: YAG medium; for MIC: Aspergillus terreus, read-out: MIC A Terreus 4
# Description: as §1, §2, §3, §4, §5, §6
# [2] = test system: Aspergillus fumigatus AF210; assay: MIC, YAG medium, Aspergillus fumigatus AF210; settings: YAG medium; for MIC: Aspergillus fumigatus, AF210, read-out: MIC A Fum. 210
# Description: as §1, §2, §3, §4, §5, §6
Compound,MIC A Flavus 01 (Aspergillus flavus),MIC A Fum. 293 [1],MIC A Niger 1 (Aspergillus niger),MIC A Terreus 4 (Aspergillus terreus),MIC A Fum. 210 [2],MIC (Aspergillus flavus),MIC [1],MIC (Aspergillus niger),MIC (Aspergillus terreus),MIC [2]
"O=C(Nc1ccccn1)C(=O)c1c(-c2ccccc2)cc2ccccn12 [Example 151, 2-Oxo-2-(2-phenyl-indolizin-3-yl)-N-pyridin-2-yl-acetamide]",–,–,–,–,–,1.6 µg/mL,6.25 µg/mL,0.4 µg/mL,0.4 µg/mL,6.25 µg/mL
"O=C(Nc1cccnc1)C(=O)c1c(-c2ccccc2)cc2ccccn12 [Example 152, 2-Oxo-2-(2-phenyl-indolizin-3-yl)-N-pyridin-3-yl-acetamide]",–,–,–,–,–,1.6 µg/mL,12.5 µg/mL,0.4 µg/mL,0.8 µg/mL,25 µg/mL
"COc1ccc(NC(=O)C(=O)c2c(-c3ccc(F)cc3)cc3ccccn23)cn1 [Example 157, 2-[2-(4-Fluoro-phenyl)-indolizin-3-yl]-N-(6-methoxy-pyridin-3-yl)-2-oxo-acetamide]",–,–,–,–,–,0.1 µg/mL,6.25 µg/mL,0.1 µg/mL,0.2 µg/mL,1.6 µg/mL
"O=C(Nc1ccncc1)C(=O)c1c(-c2ccccc2)cc2ccccn12 [Example 158, 2-Oxo-2-(2-phenyl-indolizin-3-yl)-N-pyridin-4-yl-acetamide]",–,–,–,–,–,> 50 µg/mL,> 50 µg/mL,0.4 µg/mL,> 50 µg/mL,> 50 µg/mL
"CN(C)C(=O)c1ccc(NC(=O)C(=O)c2c(-c3ccccc3)cc3ccccn23)cc1 [Example 160, N,N-Dimethyl-4-[2-oxo-2-(2-phenyl-indolizin-3-yl)-acetylamino]-benzamide]",–,–,–,–,–,3.1 µg/mL,50 µg/mL,0.4 µg/mL,50 µg/mL,50 µg/mL
"COc1ccc(NC(=O)C(=O)c2c(-c3ccncc3)cc3ccccn23)cc1 [Example 162, N-(4-Methoxy-phenyl)-2-oxo-2-(2-pyridin-4-yl-indolizin-3-yl)-acetamide]",–,–,–,–,–,> 50 µg/mL,> 50 µg/mL,3.1 µg/mL,> 50 µg/mL,> 50 µg/mL
"COc1ccc(NC(=O)C(=O)c2c(-c3ccccn3)cc3ccccn23)cc1 [Example 163, N-(4-Methoxy-phenyl)-2-oxo-2-(2-pyridin-2-yl-indolizin-3-yl)-acetamide]",–,–,–,–,–,> 50 µg/mL,> 50 µg/mL,1.6 µg/mL,> 50 µg/mL,> 50 µg/mL
"COc1ccc(NC(=O)C(=O)c2c(-c3ccco3)cc3ccccn23)cc1 [Example 164, 2-(2-Furan-2-yl-indolizin-3-yl)-N-(4-methoxy-phenyl)-2-oxo-acetamide]",–,–,–,–,–,0.4 µg/mL,> 50 µg/mL,0.4 µg/mL,> 50 µg/mL,> 50 µg/mL
"Cc1ccc(NC(=O)C(=O)c2c(-c3ccco3)cc3ccccn23)cc1 [Example 168, 2-(2-Furan-2-yl-indolizin-3-yl)-2-oxo-N-p-tolyl-acetamide]",–,–,–,–,–,0.4 µg/mL,1.6 µg/mL,0.4 µg/mL,1.6 µg/mL,3.1 µg/mL
"COc1ccc(NC(=O)C(=O)c2c(-c3ccco3)cc3ccccn23)c(OC)c1 [Example 169, N-(2,4-Dimethoxy-phenyl)-2-(2-furan-2-yl-indolizin-3-yl)-2-oxo-acetamide]",–,–,–,–,–,0.4 µg/mL,3.1 µg/mL,0.4 µg/mL,3.1 µg/mL,6.25 µg/mL
"COc1ccc(NC(=O)C(=O)c2c(-c3ccco3)cc3ccccn23)cn1 [Example 170, 2-(2-Furan-2-yl-indolizin-3-yl)-N-(6-methoxy-pyridin-3-yl)-2-oxo-acetamide]",–,–,–,–,–,3.1 µg/mL,> 50 µg/mL,3.1 µg/mL,> 50 µg/mL,> 50 µg/mL
"Cc1ccc(NC(=O)C(=O)c2c(-c3ccncc3)cc3ccccn23)cc1 [Example 171, 2-Oxo-2-(2-pyridin-4-yl-indolizin-3-yl)-N-p-tolyl-acetamide]",–,–,–,–,–,0.4 µg/mL,50 µg/mL,> 50 µg/mL,0.8 µg/mL,1.6 µg/mL
"COc1ccc(NC(=O)C(=O)c2c(-c3cccnc3)cc3ccccn23)c(OC)c1 [Example 174, N-(2,4-Dimethoxy-phenyl)-2-oxo-2-(2-pyridin-3-yl-indolizin-3-yl)-acetamide]",–,–,–,–,–,0.1 µg/mL,6.25 µg/mL,1.6 µg/mL,0.2 µg/mL,3.1 µg/mL
"Cc1ccc(NC(=O)C(=O)c2c(-c3ccccn3)cc3ccccn23)cc1 [Example 175, 2-Oxo-2-(2-pyridin-2-yl-indolizin-3-yl)-N-p-tolyl-acetamide]",–,–,–,–,–,> 50 µg/mL,> 50 µg/mL,> 50 µg/mL,3.1 µg/mL,3.1 µg/mL

# Next, values leading:
MIC A Flavus 01 (Aspergillus flavus),MIC A Fum. 293 [1],MIC A Niger 1 (Aspergillus niger),MIC A Terreus 4 (Aspergillus terreus),MIC A Fum. 210 [2],MIC (Aspergillus flavus),MIC [1],MIC (Aspergillus niger),MIC (Aspergillus terreus),MIC [2],Compound
0.1 µg/mL,0.8 µg/mL,0.2 µg/mL,0.2 µg/mL,0.8 µg/mL,–,–,–,–,–,"CON=C(C(=O)Nc1ccc(OC)cc1)c1c(-c2ccccc2)cc2ccccn12 (mixture of isomers) [Example 298, 2-[(E/Z)-Methoxyimino]-N-(4-methoxy-phenyl)-2-(2-phenyl-indolizin-3-yl)-acetamide]"
–,–,–,–,–,> 50 µg/mL,> 50 µg/mL,0.8 µg/mL,> 50 µg/mL,> 50 µg/mL,"COC(=O)c1ccccc1NC(=O)C(=O)c1c(-c2ccccc2)cc2ccccn12 [Example 142, 2-[2-Oxo-2-(2-phenyl-indolizin-3-yl)-acetylamino]-benzoic acid methyl ester]"
–,–,–,–,–,0.1 µg/mL,12.5 µg/mL,0.1 µg/mL,3.1 µg/mL,6.25 µg/mL,"COc1ccc(NC(=O)C(=O)c2c(-c3cccnc3)cc3ccccn23)cc1 [Example 147, N-(4-Methoxy-phenyl)-2-oxo-2-(2-pyridin-3-yl-indolizin-3-yl)-acetamide]"
–,–,–,–,–,3.1 µg/mL,> 50 µg/mL,0.8 µg/mL,> 50 µg/mL,25 µg/mL,"CNC(=O)c1ccc(NC(=O)C(=O)c2c(-c3ccccc3)cc3ccccn23)cc1 [Example 153, N-Methyl-4-[2-oxo-2-(2-phenyl-indolizin-3-yl)-acetylamino]-benzamide]"
–,–,–,–,–,> 50 µg/mL,> 50 µg/mL,1.6 µg/mL,50 µg/mL,> 50 µg/mL,"O=C(Nc1ccc(C(=O)O)cc1)C(=O)c1c(-c2ccccc2)cc2ccccn12 [Example 159, 4-[2-Oxo-2-(2-phenyl-indolizin-3-yl)-acetylamino]-benzoic acid]"
–,–,–,–,–,> 50 µg/mL,> 50 µg/mL,6.25 µg/mL,> 50 µg/mL,> 50 µg/mL,"NC(=O)c1ccc(NC(=O)C(=O)c2c(-c3ccccc3)cc3ccccn23)cc1 [Example 161, 4-[2-Oxo-2-(2-phenyl-indolizin-3-yl)-acetylamino]-benzamide]"
–,–,–,–,–,0.4 µg/mL,25 µg/mL,3.1 µg/mL,1.6 µg/mL,25 µg/mL,"COc1ccc(NC(=O)C(=O)c2c(-c3ccncc3)cc3ccccn23)c(OC)c1 [Example 172, N-(2,4-Dimethoxy-phenyl)-2-oxo-2-(2-pyridin-4-yl-indolizin-3-yl)-acetamide]"
–,–,–,–,–,> 50 µg/mL,> 50 µg/mL,3.1 µg/mL,> 50 µg/mL,> 50 µg/mL,"COc1ccc(NC(=O)C(=O)c2c(-c3ccccn3)cc3ccccn23)c(OC)c1 [Example 176, N-(2,4-Dimethoxy-phenyl)-2-oxo-2-(2-pyridin-2-yl-indolizin-3-yl)-acetamide]"
